Tests used:
[1] = tested on: protein oxidation and enzyme activity in aged cells/brain; conditions: as early as seven days following initiation of daily treatment; cited from earlier work
[2] = tested on: protein oxidation and enzyme activity in aged cells/brain; experiment: Age-related protein oxidation and enzyme activity after daily administration; format: in vivo; conditions: aging; daily administration for fourteen days
From the text: The consequence of this increased level of protein oxidation is an abnormally low level of critical enzymes in the affected cells. While not all cells have been evaluated, it appears from the in vivo data presented in U.S. Ser. No. 07/589,177abandoned on Mar. 5, 1993, and U.S. Ser. No. 07/422,651, now U.S. Pat. No. 5,025,032, and reports of in vitro studies, that most, if not all, cells in the body will undergo abnormally high levels of protein oxidation. Decreases in antioxidant systems and abnormally low levels of mitochondrial function have been described. The protein oxidation is thought to arise from oxygen free radicals, largely generated via a metal catalyzed reaction within the cell. […] Organs for transplantation are obtained from donors. The success of the procedure is determined in part by the age (oxidation) related reduction in organ viability, the amount of time the organ is in preservation solution, and the status of the recipient.

[3] = tested on: oxidation of low density lipoprotein in plasma; experiment: Oxidation of lipid in plasma/LDL samples measured as thiobarbituric acid reactive substance (TBAR); format: biochemical; conditions: for % inhibition / Test (TBAR): 0.1 mM PBN, 4° C. for seven weeks; for % inhibition: actual inhibition greater than measured (assay interference by PBN)
Method: Diabetic atherosclerosis involves the abnormal and excessive glycation of protein in the vascular wall. As discussed above for diabetic neuropathy, this involves oxygen radical production and consequent further damage to cytosolic proteins. Spin-trapping compounds will prevent this abnormal processing of cellular protein and other cellular constituents. […] Plasma samples were tested for oxidation of lipid measured using thiobarbioturic acid reactive substance (TBAR, nM) and % inhibition of oxidation calculated.

[4] = Toxicity tests (LD50); format: in vivo
Method: Exemplary dosages of the parent phenyl t-butyl nitrone administered intravenously range from 0.1 to 10 mg/kg of body weight in animals. […] It is possible to extrapolate from comparative tests using other spin trapping compounds what the effective dosage for these compounds will be.

[5] = tested on: free radicals produced by adriamycin in heart, brain and other organs; conditions: brain and other organs of research animals; cited from earlier work

## CC(C)(C)[N+]([O-])=Cc1ccccc1 [PBN, phenyl N-tert-butylnitrone]
[1]
  enzymatic status of the aged brain: restoring enzymatic levels to near those of the young adult
[2]
  abnormally low level of enzyme activity: restored to normal
  level of protein oxidation: decreased
[3]; NP132 plasma
  % inhibition: 18.2%
[3]; NP132 plasma, control + PBS 0.55
  Test (TBAR): 0.45 nM/ml
[3]; NP133 LDL
  % inhibition: 48.1%
[3]; NP133 LDL, control + PBS 0.54
  Test (TBAR): 0.28 nM/ml
[3]; NP134 plasma
  % inhibition: 22.2%
[3]; NP134 plasma, control + PBS 0.18
  Test (TBAR): 0.14 nM/ml
[3]; NP135 LDL
  % inhibition: 66.7%
[3]; NP135 LDL, control + PBS 0.33
  Test (TBAR): 0.11 nM/ml
[3]; NP135 plasma
  % inhibition: 21.9%
[3]; NP135 plasma, control + PBS 0.32
  Test (TBAR): 0.25 nM/ml
[3]; in vitro studies
  oxidation of low density lipoprotein in plasma: inhibits or reduces oxidation of low density lipoprotein in plasma
[4]
  LD50: not possible to determine an LD50
  toxicity: completely innocuous
[5]
  trapping of free radicals produced by adriamycin: trap the free radicals produced by adriamycin

Source: patent US6403627B1, “Spin trapping pharmaceutical compositions and methods for use thereof” (Oklahoma Medical Research Foundation, priority 1991, dated 2002)
